Source: patent publication US5936065A, “CS-1 peptidomimetics, compositions and methods of using the same” (Cytel Corporation, priority 1995, dated 1999)
Square brackets hold non-standard residues; d marks the D form. Peptide text beside a SMILES is read from it. * marks the point of attachment. PhAc = O=C(Cc1ccccc1)*

Experiments:
VLA-4 receptor = target: T1, VLA-4 receptor (Homo sapiens, UniProt P05556+P13612); experiment: In vitro binding assay: inhibition of binding of 51Cr-labeled Jurkat cells to solid phase-bound CS-1 compound (SEQ ID NO:1); assay type: cell-based; details: for Relative Potency: binding inhibition potency (IC50) normalized to standard compound of SEQ ID NO:3 = 1, multiple assays averaged, about one-tenth or less assigned zero
T1 construct: inflammatory cells that contain the VLA-4 receptor [Jurkat cells; host or cells: Jurkat cells (human T lymphoblastic line)
T1 sequence (P13612 34-1032): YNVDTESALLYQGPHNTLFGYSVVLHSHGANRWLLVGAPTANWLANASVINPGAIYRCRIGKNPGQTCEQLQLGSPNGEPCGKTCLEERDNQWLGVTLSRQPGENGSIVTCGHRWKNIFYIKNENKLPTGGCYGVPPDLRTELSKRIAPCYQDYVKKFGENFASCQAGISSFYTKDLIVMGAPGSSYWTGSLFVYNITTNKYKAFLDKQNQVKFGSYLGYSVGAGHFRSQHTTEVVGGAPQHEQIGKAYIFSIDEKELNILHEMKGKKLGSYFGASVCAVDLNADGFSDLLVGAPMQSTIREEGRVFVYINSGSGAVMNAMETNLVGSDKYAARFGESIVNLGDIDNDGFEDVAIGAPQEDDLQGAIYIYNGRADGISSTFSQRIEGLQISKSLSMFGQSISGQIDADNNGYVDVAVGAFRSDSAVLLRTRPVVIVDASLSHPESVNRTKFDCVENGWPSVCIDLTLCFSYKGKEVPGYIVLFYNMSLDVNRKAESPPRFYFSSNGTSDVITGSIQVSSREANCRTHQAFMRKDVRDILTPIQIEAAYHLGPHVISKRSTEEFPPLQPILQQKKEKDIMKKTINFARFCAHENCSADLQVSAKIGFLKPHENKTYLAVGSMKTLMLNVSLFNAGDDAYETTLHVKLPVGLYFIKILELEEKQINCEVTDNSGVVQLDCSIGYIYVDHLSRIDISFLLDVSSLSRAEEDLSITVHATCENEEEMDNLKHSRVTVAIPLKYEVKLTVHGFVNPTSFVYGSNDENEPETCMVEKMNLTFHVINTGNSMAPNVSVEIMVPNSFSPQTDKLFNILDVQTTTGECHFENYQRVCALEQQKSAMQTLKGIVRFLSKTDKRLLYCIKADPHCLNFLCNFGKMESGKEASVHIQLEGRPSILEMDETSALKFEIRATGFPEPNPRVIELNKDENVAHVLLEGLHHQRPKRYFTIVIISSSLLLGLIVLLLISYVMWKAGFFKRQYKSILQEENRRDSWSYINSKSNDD
T1 sequence (P05556 21-798): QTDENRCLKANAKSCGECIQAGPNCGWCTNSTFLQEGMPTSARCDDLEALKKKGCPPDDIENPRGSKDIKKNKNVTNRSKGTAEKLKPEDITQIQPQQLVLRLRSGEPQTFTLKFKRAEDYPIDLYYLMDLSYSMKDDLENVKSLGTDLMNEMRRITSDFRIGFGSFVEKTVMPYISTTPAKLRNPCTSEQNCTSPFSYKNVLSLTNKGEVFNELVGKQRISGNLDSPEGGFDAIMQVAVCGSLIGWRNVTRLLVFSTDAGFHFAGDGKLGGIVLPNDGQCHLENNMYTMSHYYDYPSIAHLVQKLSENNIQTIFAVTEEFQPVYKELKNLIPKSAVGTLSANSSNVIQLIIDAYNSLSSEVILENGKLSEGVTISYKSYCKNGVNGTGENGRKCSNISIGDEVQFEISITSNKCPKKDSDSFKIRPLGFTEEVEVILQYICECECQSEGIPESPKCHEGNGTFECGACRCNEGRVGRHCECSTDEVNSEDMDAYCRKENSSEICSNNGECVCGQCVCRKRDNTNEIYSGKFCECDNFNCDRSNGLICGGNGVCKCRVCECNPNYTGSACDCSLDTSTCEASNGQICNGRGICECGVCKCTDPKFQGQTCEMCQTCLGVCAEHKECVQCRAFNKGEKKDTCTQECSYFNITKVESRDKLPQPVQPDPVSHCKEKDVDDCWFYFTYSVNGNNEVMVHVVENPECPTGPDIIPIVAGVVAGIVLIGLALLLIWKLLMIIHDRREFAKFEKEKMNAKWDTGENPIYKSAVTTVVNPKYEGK
Description: Binding inhibition is measured here as a concentration of compound that inhibits one-half the binding between a standard number of Jurkat cells and a standard amount of CS-1 compound bound to the surface of a microtiter plate well. Those concentrations are conveniently expressed as IC50 values, smaller numbers indicating a lower concentration required to inhibit 50 percent binding and therefore greater potency. Further specifics of this assay are provided hereinafter.
Jurkat cells (ATCC TIB 152), a human T lymphoblastic line, labeled with ^51 chromium were used to assay in vitro binding inhibition provided by various compounds discussed herein.
The plates were prepared as follows: The 25-mer CS-1 compound (SEQ ID NO:1) dissolved at 0.5-1 μg/ml in a buffer of 0.1M NaHCO3 at pH 9.5 that also contained 10 μg/ml of bovine serum albumin (BSA) or a conjugate of the CS-1 compound linked to ovalbumin (CS-1-OVA) dissolved at 1-2.5 μg/ml in the same buffer was used as the substrate. Each well of the microtiter plates was coated with 50 μl of substrate or buffer alone for controls. The wells were permitted to dry out completely and were then rinsed twice with PBS at pH 7.4. Non-specific binding sites of each well were then blocked using 200 μl per well of RPMI/1 percent BSA for two hours at room temperature.
Jurkat cells (3-5×10^6 cells) were placed into a 15 ml Falcon™ round-bottom tube with a cap. The tube was centrifuged, and the extra medium was then removed.
Two hundred microliters of a ^51 Cr labeling solution were added to the centrifuged cells and maintained in contact with the cells for 90-120 minutes in a warm room. […] Longer contact times provide a greater amount of labeling but lower cell viability.
The labeled cells are washed with (i) complete medium, (ii) 1 mM EDTA/PBS and then (iii) RPM1/1 percent BSA free of serum components. The cells are centrifuged after each washing. The cells are finally resuspended in serum-free RPMI/1 percent BSA at a concentration of 1×10^6 viable cells/ml, which provides a concentration that is diluted by one-half in the assay.
Inhibitor compounds are prepared as stock solutions at 20 mg/ml in DMSO in 1.5 ml cryogenic screwcap vials, and were stored at -70° C. Using Flow™ round-bottom or V-bottom microtiter plates, the inhibitor compounds were prepared at twice the assay concentration in RPMI/1 percent BSA at 60 μl/well.
Four initial dilutions were typically used.
The ^51 Cr-labeled cells ([…] at 60 μl/well) were then admixed with the diluted compound solutions. The admixtures were maintained at room temperature (about 22° C.) for 30 minutes.
One hundred microliters of each inhibitor compound/cell admixture were transferred to the substrate-coated wells. This was done in triplicate for each dilution. The resulting plates were incubated for 30 minutes at 37° C. and then washed gently three times with RPMI/1 percent BSA at 200 μl/well. Binding was observed microscopically, particularly after the second wash.
The bound cells were then lysed by the addition of a 0.5 percent solution of sodium dodecylsulfate in water at 100 μl/well. The resulting solutions were then processed for counting and calculation of IC50 values following usual procedures.
The data of Table 1 are normalized to the binding of SEQ ID NO:3. […] Multiple assays for the same compound were averaged.

asthmatic sheep = experiment: Treatment of asthmatic sheep (Ascaris suum antigen, double blind cross-over); assay type: in vivo; details: for PC400, carbachol dosage required to increase SRL 4-fold: 24 hours after challenge, pre-challenge values about 20-23 BU; for specific lung resistance (SRL) after challenge: nebulized 1 mg/kg twice a day for three days, 0.5 hours prior to and four hours post challenge on day 4, FIG. 7
Description: Six asthmatic sheep were treated in a double blind cross-over study. […] This study was carried out generally as described in Abraham et al., J. Clin. Invest., 93:776-787 (1994).
The inhibitor compound used here was Compound ID No. 896.52, N-phenylacetyl-Leu-Asp-Phe-D-Pro-NH2, with a control compound that comprised the previously described compound having the same residues in a scrambled sequence. The vehicle for the nebulized compounds was phosphate-buffered saline. The compounds were administered at a dose of 1 mg/kg each, twice a day for three days prior to challenge, as well as 0.5 hours prior to and four hours post challenge on day 4. Because this was a crossover study, each animal received one or the other treatment, followed by a rest and then the other treatment. Each animal therefore served as its own control.
Post challenge airway responsiveness was also assayed. Here, specific lung resistance, SRL, returned to baseline values 24 hours after challenge, however, the sheep were hyperresponsive to inhaled carbachol at that time.

Row | Structure (SMILES) | IC50 value, times less than the IC50 value for the standard 10-mer (VLA-4 receptor; as shown in Table 1) | Relative Potency (VLA-4 receptor) | PC400, carbachol dosage required to increase SRL 4-fold (asthmatic sheep) | specific lung resistance (SRL) after challenge (asthmatic sheep) | binding inhibition, in words (compared with standard 10-mer of SEQ ID NO:3 or other compounds) (VLA-4 receptor)
1 | CC(C)C[C@H](NC(=O)Cc1ccccc1)C(=O)N[C@@H](CC(=O)O)C(=O)N[C@@H](Cc1ccccc1)C(=O)N1CCC[C@@H]1C(N)=O [896.52, N-phenylacetyl-Leu-Asp-Phe-D-Pro-NH2] (PhAc-LDF[dP]-NH2) | about 312 times | 313 | about 27 BU | less of a change from baseline specific lung resistance | 
2 | CC(C)C[C@H](NC(=O)[C@H](CC(=O)O)NC(=O)Cc1ccccc1)C(=O)N[C@@H](Cc1ccccc1)C(=O)N1CCC[C@@H]1C(N)=O [N-phenylacetyl-Asp-Leu-Phe-D-Pro-NH2, reference compound] (PhAc-DLF[dP]-NH2) |  | 0 | about 12 BU | had an increase in that pulmonary function | no inhibition of VLA-4
